Data taken from patent US20230146795A1, “ENHANCEMENT OF ANTI-TUMOR ACTIVITY OF SHP2 INHIBITOR PYRIMIDINONE IN COMBINATION WITH NOVEL CANCER MEDICINES IN CANCERS” (TAIHO PHARMACEUTICAL CO., LTD., priority 2020, published 2023).

Assays:
[1] = target: T1, SHP2 (Homo sapiens, UniProt Q06124); assay: SHP2 biochemical assay (DiFMUP conversion); details: 10 pM SHP2, 0.25 μM pIRS1 peptide, 50 μM DiFMUP
T1 sequence (Q06124 1-593): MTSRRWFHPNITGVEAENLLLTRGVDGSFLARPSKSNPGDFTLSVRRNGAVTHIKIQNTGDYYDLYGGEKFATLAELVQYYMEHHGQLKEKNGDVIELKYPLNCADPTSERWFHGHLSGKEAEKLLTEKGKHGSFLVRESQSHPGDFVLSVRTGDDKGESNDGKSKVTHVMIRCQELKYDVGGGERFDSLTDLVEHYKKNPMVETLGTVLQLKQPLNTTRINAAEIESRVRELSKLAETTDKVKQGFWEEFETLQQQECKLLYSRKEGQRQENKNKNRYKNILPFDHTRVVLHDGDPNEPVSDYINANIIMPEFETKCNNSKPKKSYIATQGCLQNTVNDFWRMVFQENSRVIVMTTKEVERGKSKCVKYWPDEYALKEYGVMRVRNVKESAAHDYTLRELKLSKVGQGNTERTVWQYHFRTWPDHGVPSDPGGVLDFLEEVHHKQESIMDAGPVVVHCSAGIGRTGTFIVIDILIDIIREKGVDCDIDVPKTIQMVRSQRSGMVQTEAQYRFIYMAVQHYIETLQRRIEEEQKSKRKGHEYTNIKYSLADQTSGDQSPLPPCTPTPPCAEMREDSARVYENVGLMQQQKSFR
Procedure: (1) SHP2 Biochemical Assay SHP2 Activity was Monitored by Measuring the Conversion of the Surrogate Substrate 6,8-Difluoromethylumbelliferyl Phosphate (DiEMUP) to the Fluorescent Product, 6,8-Difluoromethylumbelliferone (DiFMU).
SHP2 was pre-incubated with test compounds and the activating peptide pIRS1 (H2N-LN(pY) IDLDLV-(PEG) 8-LST(pY)ASINFQK-amide) for 30 min, prior to addition of the 6,8-difluoromethylumbelliferyl phosphate (DiEMUP), (Thermo Fisher D6567). Final assay concentrations were 10 pM SHP2, 0.25 μM pIRS1 peptide, 50 μM DiFMUP, 25 mM Bis-Tris propane, pH 7.0, 150 mM NaCl, 0.05% (v/v) Tween-20, 0.5 mM TCEP and 5% (v/v) DMSO. Rates of reaction were then measured over 30 min by monitoring fluorescence on a BMG Pherastar reader at excitation 360 nm/emission 450 nm. IC50 values were calculated in singlicate from the normalized dose-response plots using four parameter logistic curve fit. The Experiment for each compound was carried out in one time or multiple times, and the IC50 values were shown as a single value (for a compound measured in a single experiment) or an average value (for a compound measured in multiple experiments).

[2] = test system: pERK levels in HCC827 cells; assay: Cellular pERK inhibition assay (In-Cell Western); format: cell-based; details: Homo sapiens, relative IC50
Procedure: pERK levels were determined using the In-Cell Western assay. HCC827 cells (ATCC, Manassas, USA) were seeded into 384-well plates at a density of 1×10^4 cells/well in RPMI1640 medium supplemented with 10% FBS and incubated 24 h. Compounds were diluted first in DMSO and then into serum-free medium, before being added to cells in quadruplicate to give a final concentration of 0.2% DMSO. Plates were incubated at 37° C. for the indicated time in a humidified atmosphere of 5% CO2 in air.
Following compound treatment, cells were fixed with formalin neutral buffer solution for 20 minutes at room temperature. Plates were washed three times with 0.1% Triton-X in PBS and cells were blocked for 1 hour with Odyssey blocking buffer (LI-COR, #927-40000). […] Levels of pERK were then expressed as percent of control, using DMSO treated samples as control. The relative IC50 values were calculated in quadruplicate from the normalized dose-response plots using four parameter logistic curve fit. The Experiment for each compound was carried out in one time or multiple times, and the IC50 values were shown as a single value (for a compound measured in a single experiment) or an average value (for a compound measured in multiple experiments).

[3] = test system: human pancreatic cancer cell line MIA PaCa-2 (KRAS mutation); assay: Antitumor effect on MIA PaCa-2 tumor subcutaneously implanted to CB17 SCID mouse; format: in vivo
Procedure: MIA PaCa-2 cell line carries KRAS mutation.
A human pancreatic cancer line, MIA PaCa-2 (available from American Type Culture Collection), suspended in a mixture of PBS and Matrigel was subcutaneously implanted to male CB17 SCID mice at 7-10 weeks of age (Charles River UK) at 5×10^6 cells/100 μl/mouse. Tumors were measured with a pair of digital calipers, and tumor volumes (TV) were calculated by applying the formula for ellipsoid. Mice with TV of 146 to 360 mm^3 were assigned to study groups such that average TV was equal among groups.
Oral administration of Compound 1 or its vehicle, and Compound 9 or its vehicle was started on Day 1. Compound 1 was dissolved in an acidified solution of 0.5% (w/v) hydroxypropyl methylcellulose (Sigma) and administered via oral gavage at 6 or 12 mg/kg/day. Compound 9 was suspended in 20% (v/v) PEG200 (Sigma) and 0.5% (w/v) methylcellulose (Sigma) and administered via oral gavage at 50 mg/kg/day. All treatments were given once a day for 21 consecutive days, except for the combination group receiving 12 mg/kg of Compound 1 and 50 mg/kg of Compound 9, in which the animals were treated for 5 days per week for 3 weeks.
Antitumor effects were evaluated by comparing the median relative tumor volumes (RTV) between control- and treated groups. RTV was calculated by dividing TV on any test day by TV on Day 1, expressed as a percentage. T/C (%), as a measure of anti-tumor activity, was calculated by dividing median RTV values of each compound-administered group by median RTV of the control group receiving both vehicles.

[4] = test system: 97 cell lines harboring driver mutations in KRAS; assay: In vitro cell line screening, 3D cultures (CellTiter-Glo 3D), KRAS panel; format: cell-based, human; details: sensitive = maximum inhibition greater than 50% relative to DMSO, max 3 μM Compound 1, 1 μM Compound 9, 120-hour incubation
Procedure: The effect of Compound 1 in combination with an ERK inhibitor, Compound 9, on 97 cell lines harboring driver mutations in KRAS (G12A, G12C, G12F, G12R, G12S, G12V, G13C, G13D, A59G, Q61H, Q61K, Q61L or A146T) was assessed using the following technique. Cells from human cancer cells lines (from commercial sources such as ATCC or ECCAC) were grown as 3D cultures by seeding cells into round-bottom ultra-low attachment 96-well tissue culture plates (Corning) followed by centrifugation. Cells were allowed to recover for 16-24 hours prior to compound treatment. Compounds or dimethyl sulfoxide (DMSO) were added at various combinations of compound concentrations in a final DMSO concentration of up to 0.5% (v/v). Following a total of 120-hour incubation, CellTiter-Glo 3D Reagent(registered trademark) (Promega) was added. Plates were incubated for 10 minutes with gentle shaking at room temperature to lyse the cells, then incubated for further 40 minutes at room temperature to stabilize luminescence signal. After mixing, the mixture was transferred to a fresh plate and luminescence was determined on EnVision plate reader (Perkin Elmer).
(§1) For both 3D and 2D assays, the combination was tested as matrix of various concentrations of Compound 1 and Compound 9. The maximum concentrations of Compound 1 and Compound 9 used were 3 μM and 1 μM, respectively. Signals were normalized to that of the average of the DMSO control wells. […] For each cell line, the maximum % inhibition values were obtained for Compound 1 alone, Compound 9 alone and the combination of both compounds. The degree of drug interaction (i.e. synergy, additivity or antagonism) was quantified for each cell line by the Bliss independence model using the Synergyfinder R package (Ref: He L. et al. (2018) Methods for High-throughput Drug Combination Screening and Synergy Scoring. In: von Stechow L. (eds) Cancer Systems Biology. Methods in Molecular Biology, vol 1711. Humana Press, New York, N.Y.). For each cell line, a single score metric, the sum of synergy and antagonism across screened drug concentrations (SUM_SYN_ANT) (Ref: Di Veroli G. Y. et al (2016) Bioinformatics 32(18):2866-2868), was calculated. Synergy was defined as a score of 21 or above.

[5] = test system: 394 cell lines that do not depend on KRAS; assay: In vitro cell line screening, 2D monolayers (CellTiter-Glo), KRAS-independent panel; format: cell-based, human; details: Non-KRAS panel, sensitive = maximum inhibition greater than 50% relative to DMSO, max 3 μM Compound 1, 1 μM Compound 9, 120-hour incubation
Procedure: (§2) Cells from human cancer cells lines (from commercial sources such as ATCC or ECCAC) were grown as 2D monolayers by seeding onto flat-bottom 96-well tissue culture plates (Corning). Cells were allowed to recover for 16-24 hours prior to compound treatment. Compounds or dimethyl sulfoxide (DMSO) were added at various combinations of compound concentrations in a final DMSO concentration of up to 0.5% (v/v). Following a total of 120-hour incubation, CellTiter-Glo reagent(registered trademark) (Promega) was added. Plates were incubated for 10 minutes with gentle shaking at room temperature to lyse the cells, then incubated for further 10 minutes at room temperature to stabilize luminescence signal. After mixing, the mixture was transferred to a fresh plate, and luminescence was determined on EnVision plate reader (Perkin Elmer).
as §1

[6] = test system: 491 cell lines; assay: In vitro cell line screening, both panels overall; format: cell-based, human; details: Total panel, sensitive = maximum inhibition greater than 50% relative to DMSO, max 3 μM Compound 1, 1 μM Compound 9, 120-hour incubation
Procedure: as §2, with “as 3D cultures” for “as 2D monolayers”, “seeding cells into round-bottom ultra-low attachment” for “seeding onto flat-bottom”, “plates (Corning) followed by centrifugation.” for “plates (Corning).”, “CellTiter-Glo 3D Reagent(registered” for “CellTiter-Glo reagent(registered”, “further 40” for “further 10”, “fresh plate” for “fresh plate,”
as §2, §1

SMILES | IC50 [1] [nM] | IC50 [2] [nM] | partial regression (tumor shrinkage of 50% or above), mice ([3]; Compound 9 alone 50 mg/kg/day) | T/C ([3]; Compound 9 alone 50 mg/kg/day oral, once a day, Day 18) [%] | tumor response ([3]; Compound 9 alone 50 mg/kg/day, during the treatment period) | Number of cell lines sensitive [4] | Number of cell lines sensitive (% of total) [4] [%] | Number of cell lines sensitive [5] | Number of cell lines sensitive (% of total) [5] [%] | Number of cell lines sensitive [6] | Number of cell lines sensitive (% of total) [6] [%]
CCn1cc2c(Cl)c(-c3c[nH]c4nc(N5C[C@H]6CC[C@@H]5[C@@H]6N)n(C)c(=O)c34)ccc2n1 [Compound 3, 2-((1R,4R,7R)-7-amino-2-azabicyclo[2.2.1]heptan-2-yl)-5-(4-chloro-2-ethyl-2H-indazol-5-yl)-3-methyl-3,7-dihydro-4H-pyrrolo[2,3-d]pyrimidin-4-one] | 4 | 35 |  |  |  |  |  |  |  |  | 
COc1cc(F)cc([C@@H](CO)NC(=O)[C@@H](C)N2Cc3ccc(-c4nc(NC5CCOCC5)ncc4Cl)cc3C2=O)c1 [Compound 9, (2R)-2-(6-{5-chloro-2-[(oxan-4-yl)amino]pyrimidin-4-yl}-1-oxo-2,3-dihydro-1H-isoindol-2-yl)-N-[(1S)-1-(3-fluoro-5-methoxyphenyl)-2-hydroxyethyl]propanamide] |  |  | 1 out of 8 | 29 | tumor stasis | 80 | 82.5 | 204 | 51.8 | 284 | 57.8
